Test [1] has as its system Green foxtail. Briefly: Test D green foxtail. Particulars: Preemergence, 0 to 100 scale. In kind it is in vivo. The procedure, abridged:
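Each weed species is planted in its own pot or compartment; preemergence doses go on the sandy loam surface within a day. The formulation is a surfactant-containing, non-phytotoxic solvent blend. Ratings come from visual comparison with untreated controls 14 to 21 days later, where 100 means complete control.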

The subject of test [2] is barnyardgrass. In words: Test A barnyardgrass. It is filed as in vivo, Echinochloa crus-galli. The following applies: 0 to 10 scale where 0 is no effect and 10 is complete control. As to the method:
Seeds of barnyardgrass (Echinochloa crus-galli), crabgrass (Digitaria spp.), morningglory (Ipomoea spp.), and velvetleaf (Abutilon theophrasti) were planted into a sandy loam soil and treated preemergence by soil drench with test chemicals formulated in a non-phytotoxic solvent mixture which includes a surfactant At the same time, these crop and weed species were also treated postemergence sprayed to runoff, with test chemicals formulated in the same manner.
Plants ranged in height from two to eighteen cm and were in the one to two leaf stage for the postemergence treatment. Treated plants and untreated controls were maintained in a greenhouse for approximately eleven days, after which all treated plants were compared to untreated controls and visually evaluated for injury. Plant response ratings, summarized in Table A, are based on a 0 to 10 scale where 0 is no effect and 10 is complete control.

The subject of test [3] is black nightshade. In words: Test E black nightshade. It is filed as in vivo, Solanum nigra. The following applies: Postemergence. The method, then: (§1) Compounds evaluated in this test were formulated in a non-phytotoxic solvent mixture which included a surfactant and applied to plants that were in the 1- to 4-leaf stage (postemergence application). A mixture of sandy loam soil and greenhouse potting mix in a 60:40 ratio was used for the postemergence test.
(§2) Plantings of these crops and weed species were adjusted to produce plants of appropriate size for the postemergence test. All plant species were grown using normal greenhouse practices. Crop and weed species include annual bluegrass (Poa annua), blackgrass (Alopecurus myosuroides), black nightshade (Solanum nigra), chickweed (Stellaria media), common poppy (Papaver rhoeas), deadnettle (Lamium amplexicaule), downy brome (Bromus tectorum), field violet (Viola arvensis), galium (Galium aparine), green foxtail (Setaria viridis), Italian ryegrass (Lolium multiflorum), jointed goatgrass (Aegilops cylindrica), kochia (Kochia scoparia), lambsquarters (Chenopodium album), littleseed canarygrass (Phalaris minor), rape (Brassica napus), redroot pigweed (Amaranthus retroflexus), Russian thistle (Salsola kali), scentless chamomile (Matricaria inodora), spring barley (Hordeum vulgare), sugar beet (Beta vulgaris), sunflower (Helianthus annuus), ivyleaf speedwell (Veronica hederaefolia), spring wheat (Triticum aestivum), winter wheat (Triticum aestivum), wild buckwheat (Polygonum convolvulus), wild mustard (Sinapis arvensis), wild oat (Avena fatua), windgrass (Apera spica-venti) and winter barley (Hordeum vulgare).
(§3) Treated plants and untreated controls were maintained in a greenhouse for approximately 21 to 28 days, after which all treated plants were compared to untreated controls and visually evaluated. […] A dash response (-) means no test result.

The subject of test [4] is littleseed canarygrass. Briefly: Test E littleseed canarygrass. It is filed as in vivo, Phalaris minor. The following applies: Postemergence. As to the method: as §1, §2, §3
Test [5] concerns kochia. In words: Test E kochia. It is filed as in vivo, Kochia scoparia. The following applies: Preemergence.
Test [6] has as its system green foxtail. In words: Test E green foxtail. It is filed as in vivo, Setaria viridis. Particulars: Postemergence. As to the method:
as §1, §2, §3

Test [7] concerns redroot pigweed. In words: Test E redroot pigweed. In kind it is in vivo, Amaranthus retroflexus. Particulars: Preemergence.
Test [8] has as its system wild mustard. Briefly: Test E wild mustard. In kind it is in vivo, Sinapis arvensis. Particulars: Preemergence.
Test [9] relates to sugar beet. In words: Test E sugar beet. It is filed as in vivo, Beta vulgaris. The following applies: Preemergence.
The test system of test [10] is common ragweed. In words: Test C postemergence common ragweed. It is filed as in vivo, Ambrosia elatior. Particulars: 0 to 100 scale, 0 no effect, 100 complete control. As to the method:
Compounds evaluated in this test were formulated in a non-phytotoxic solvent mixture which included a surfactant and applied to plants that were grown for various periods of time before treatment (postemergence application). A mixture of sandy loam soil and greenhouse potting mix in a 60:40 ratio was used for the postemergence test.
Plantings of these crops and weed species were adjusted to produce plants of appropriate size for the postemergence test. All plant species were grown using normal greenhouse practices. Crop and weed species include arrowleaf sida (Sida rhombifolia), barnyardgrass (Echinochloa crus-galli), cocklebur (Xanthium strumarium), common ragweed (Ambrosia elatior), corn (Zea mays), cotton (Gossypium hirsutum), eastern black nightshade (Solanum ptycanthum), fall panicum (Panicum dichotomiflorum), field bindweed (Convolvulus arvensis), giant foxtail (Setaria faberii), hairy beggarticks (Bidens pilosa), ivyleaf morningglory (Ipomoea hederacea), johnsongrass (Sorghum halepense), ladysthumb smartweed (Polygonum persicaria), lambsquarters (Chenopodium album), large crabgrass (Digitaria sanguinalis), purple nutsedge (Cyperus rotundus), redroot pigweed (Amaranthus retroflexus), soybean (Glycine max), surinam grass (Brachiaria decumbens), velvetleaf (Abutilon theophrasti) and wild poinsettia (Euphorbia heterophylla).
Treated plants and untreated controls were maintained in a greenhouse for approximately 14, to 21 days, after which all treated plants were compared to untreated controls and visually evaluated. Plant response ratings, summarized in Table C, were based upon a 0 to 100 scale where 0 was no effect and 100 was complete control. A dash response (−) means no test result.

Test [11] relates to surinam grass. Briefly: Test C postemergence surinam grass. It is filed as in vivo, Brachiaria decumbens. Particulars: 0 to 100 scale, 0 no effect, 100 complete control. An outline of the steps: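 Scores (0 = no effect, 100 = complete control) come from visual comparison with untreated controls after about 14–21 days. Spray formulation was a non-phytotoxic solvent mixture including surfactant; plants grew in a 60:40 sandy loam–potting mix blend.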

The mark [12] stands for this setting: Rate 250 g/ha, 0 to 100 scale (0 no effect, 100 complete control).
Setting [13] is: Rate 500 g/ha, 0 to 100 scale, 0 no effect, 100 complete control.
The mark [14] stands for this setting: Rate 125 g/ha, 0 to 100 scale (0 no effect, 100 complete control).
The mark [15] stands for this setting: Rate 500 g/ha, 0 to 100 scale where 0 is no effect and 100 is complete control.
[16] abbreviates: Rate 250 g/ha, 0 to 100 scale where 0 is no effect and 100 is complete control.

The structures appear in SMILES notation.

This is an account of results in US6737383B1, “Herbicidal oxadiazolidines” (priority 1999, dated 2004).

As to `C=CCn1c(=O)on(C(=O)N(c2ccc(Cl)cc2)C(C)C)c1=O` [Compound 105], the “Plant response rating, Green foxtail” value in [1] (Rate 250 g/ha) and in [1] (Rate 500 g/ha) was 100 in each case.

With `C=CCn1c(=O)on(C(=O)N(c2ccc(F)cc2F)C(C)C)c1=O` [Compound 151], the “Plant response rating, Green foxtail” value in test [1] (Rate 250 g/ha) and in [1] (Rate 500 g/ha) was 100 throughout.

With `Cc1cccc(Cl)c1-n1c(=O)on(C(=O)N(c2ccc(F)cc2)C(C)C)c1=O` [Compound 53], the “Plant response rating, Barnyardgrass” value is recorded as 3 in test [2] (Postemergence, Rate 1000 g/ha) and 8 in test [2] (Pre-emergence, Rate 2000 g/ha).

Regarding `CC(C)N(C(=O)n1oc(=O)n(C(C)C)c1=O)c1ccc(Cl)cc1` [Compound 114], the “Plant response rating, Blk nightshade” value came out at 50 in test [3] (Rate 125 g/ha, 0 to 100 scale); 40 in [3] (setting [12]); 80 in test [3] (setting [13]). Besides, the “Plant response rating, LS canarygrass” value in test [4] (Rate 125 g/ha, 0 to 100 scale) was determined as 0; in test [4] (setting [12]) it was 30; in test [4] (setting [13]), 60. The “Plant response rating, Kochia” value turned out to be 25 in test [5] (setting [14]); 30 in test [5] (Rate 250 g/ha, 0 to 100 scale); 30 in test [5] (setting [15]). Besides, the “Plant response rating, Green foxtail” value in test [6] (Rate 125 g/ha, 0 to 100 scale) is listed as 20; in test [6] (setting [12]), 50; in test [6] (setting [13]), 90. Also, the “Plant response rating, Redroot pigweed” value in test [7] (setting [14]) was 50; in test [7] (Rate 250 g/ha, 0 to 100 scale) it was 65; in test [7] (setting [15]), 100. Besides, the “Plant response rating, Barnyardgrass” value in test [2] (Postemergence, Rate 1000 g/ha) is 8; in test [2] (Pre-emergence, Rate 2000 g/ha), 10. Besides, the “Plant response rating, Wild mustard” value came to 50 in [8] (setting [14]); 40 in [8] (Rate 250 g/ha, 0 to 100 scale); 90 in test [8] (setting [15]). Moreover, the “Plant response rating, Sugar beet” value in test [9] (setting [14]) is reported as 20; in test [9] (Rate 250 g/ha, 0 to 100 scale) it was 40; in test [9] (setting [15]), 50.

`CC(C)N(C(=O)n1oc(=O)n(C(C)C)c1=O)c1ccc(F)cc1` [Compound 131]: the “Plant response rating, Blk nightshade” value is on record as 50 in [3] (Rate 62 g/ha, 0 to 100 scale); 50 in [3] (Rate 125 g/ha, 0 to 100 scale); 70 in test [3] (setting [13]). In addition, the “Blk nightshade plant response rating” value in [3] (setting [16]) was determined as 60. Moreover, the “Plant response rating Common ragweed” value in test [10] (Rate 140 g/ha), in [10] (Rate 280 g/ha), in test [10] (Rate 560 g/ha) and in test [10] (Rate 1120 g/ha) was 0 throughout. Moreover, the “Plant response rating, LS canarygrass” value is reported as 50 in test [4] (Rate 62 g/ha, 0 to 100 scale); 0 in [4] (Rate 125 g/ha, 0 to 100 scale); 50 in [4] (setting [13]). For the same compound, the “LS canarygrass plant response rating” value in test [4] (setting [16]) is 20. The entries for the “Plant response rating, Kochia” value in [5] (setting [14]) and in [5] (setting [15]) were 0 and 100, respectively. For the same compound, in test [5] (Rate 250 g/ha), the “Kochia plant response rating (0 to 100 scale)” value was 10. The “Plant response rating, Green foxtail” value was 55 in test [6] (Rate 62 g/ha, 0 to 100 scale); 70 in test [6] (Rate 125 g/ha, 0 to 100 scale); 75 in test [6] (setting [13]); 100 in [1] (Rate 250 g/ha); 100 in test [1] (Rate 500 g/ha). Besides, in [6] (setting [16]), the “Green foxtail plant response rating” value was determined as 50. The “Plant response rating, Surinam grass” value was 0 in test [11] (Rate 140 g/ha), 80 in test [11] (Rate 280 g/ha), 85 in test [11] (Rate 560 g/ha) and 90 in test [11] (Rate 1120 g/ha). For the same compound, the “Plant response rating, Redroot pigweed” value in test [7] (setting [14]) turned out to be 100; in test [7] (setting [15]) it was 95. Moreover, in test [7] (Rate 250 g/ha), the “Redroot pigweed plant response rating (0 to 100 scale)” value is on record as 100. Besides, the “Plant response rating, Wild mustard” value in [8] (setting [14]) came to 60; in test [8] (setting [15]), 100. In test [8] (Rate 250 g/ha), the “Wild mustard plant response rating (0 to 100 scale)” value is 100. Further, the “Plant response rating, Sugar beet” value in test [9] (setting [14]) came out at 80; in test [9] (setting [15]), 90. Moreover, the “Sugar beet plant response rating (0 to 100 scale)” value in test [9] (Rate 250 g/ha) was 60.

On to `CCc1cccc(C)c1-n1c(=O)on(C(=O)N(c2ccc(F)cc2)C(C)C)c1=O` [Compound 52], for which the “Plant response rating, Barnyardgrass” value is 5 in [2] (Postemergence, Rate 1000 g/ha) and 9 in test [2] (Pre-emergence, Rate 2000 g/ha).

With `CC(C)N(C(=O)n1oc(=O)n(C2CCCCC2)c1=O)c1ccc(F)cc1F` [Compound 115], the “Plant response rating, Green foxtail” value in test [1] (Rate 250 g/ha) and in test [1] (Rate 500 g/ha) was 100 throughout.

In the case of `CCn1c(=O)on(C(=O)N(c2ccccc2)C(C)C)c1=O` [Compound 117], the “Plant response rating Common ragweed” value in [10] (Rate 140 g/ha) stood at 0; in [10] (Rate 280 g/ha), 0; in [10] (Rate 560 g/ha), 20; in test [10] (Rate 1120 g/ha), 50. Moreover, in test [1] (Rate 500 g/ha), the “Plant response rating, Green foxtail” value is reported as 100. In addition, the “Plant response rating, Surinam grass” value in [11] (Rate 140 g/ha) came to 0; in [11] (Rate 280 g/ha), 0; in test [11] (Rate 560 g/ha), 40; in [11] (Rate 1120 g/ha), 90.

Turning to `CC(C)N(C(=O)n1oc(=O)n(N(C)C)c1=O)c1ccccc1` [Compound 225], the “Plant response rating, Barnyardgrass” value in test [2] (Postemergence, Rate 1000 g/ha) amounted to 9; in test [2] (Pre-emergence, Rate 2000 g/ha), 10.
